Data from ChEMBL document CHEMBL1132717, “Development of fluorine-18-labeled 5-HT1A antagonists” (J Med Chem, 1999).

Assays:
[1] = species: Rattus norvegicus; assay: Biodistribution of the [18F]-radiolabeled compound in rat cerebellum; type: ADME, organism-based; details: in vivo
[2] = species: Rattus norvegicus; assay: Biodistribution of the [18F]-radiolabeled compound in rat hypothalamus; type: ADME, organism-based; details: in vivo
[3] = species: Rattus norvegicus; assay: Biodistribution of the [18F]-radiolabeled compound in rat cortex; type: ADME, organism-based; details: in vivo
[4] = species: Rattus norvegicus; assay: Biodistribution of the [18F]-radiolabeled compound in rat hippocampus; type: ADME, organism-based; details: in vivo
[5] = target: T1, 5-hydroxytryptamine receptor 1A (Homo sapiens, UniProt P08908); assay: In vitro inhibition of [3H]- 8-OH-DPAT binding to cloned cell line containing human 5-hydroxytryptamine 1A receptor
T1 sequence (P08908 whole entry): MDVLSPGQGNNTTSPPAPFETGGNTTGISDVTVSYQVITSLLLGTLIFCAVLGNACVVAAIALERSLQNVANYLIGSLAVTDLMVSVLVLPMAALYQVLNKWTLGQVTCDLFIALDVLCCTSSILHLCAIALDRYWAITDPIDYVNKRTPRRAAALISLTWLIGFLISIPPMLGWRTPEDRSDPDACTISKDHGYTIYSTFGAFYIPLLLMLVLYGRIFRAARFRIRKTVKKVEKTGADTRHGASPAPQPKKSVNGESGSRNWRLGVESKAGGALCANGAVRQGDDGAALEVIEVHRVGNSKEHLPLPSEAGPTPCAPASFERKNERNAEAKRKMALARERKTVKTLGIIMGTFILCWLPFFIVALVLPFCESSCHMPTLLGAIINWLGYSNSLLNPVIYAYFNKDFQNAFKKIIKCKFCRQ

[6] = target: T1, 5-hydroxytryptamine receptor 1A; assay: In vitro inhibition of [3H]- 8-OH-DPAT binding to cloned cell line containing human 5-hydroxytryptamine 1A receptor by Panlabs assay
[7] = target: T1, 5-hydroxytryptamine receptor 1A; assay: In vitro inhibition of [3H]- 8-OH-DPAT binding to cloned cell line containing human 5-hydroxytryptamine 1A receptor (Experiment 2)
[8] = target: T1, 5-hydroxytryptamine receptor 1A; assay: In vitro inhibition of [3H]- 8-OH-DPAT binding to cloned cell line containing human 5-hydroxytryptamine 1A receptor (Experiment 1)

| ID/g [1] [%] | ID/g [2] [%] | ID/g [3] [%] | ID/g [4] [%] | Ki [5] [pM] | Ki [6] [pM] | Ki [7] [pM] | Ki [8] [pM] | Structure (SMILES) |
| --- | --- | --- | --- | --- | --- | --- | --- | --- |
| 0.034 | 0.066 | 0.085 | 0.195 |  |  |  |  | COc1ccccc1N1CCN(CCN(C(=O)c2ccc(F)cc2)c2ccccn2)CC1 |
| 0.064 | 0.499 | 0.823 | 1.298 | 515 | 247 |  |  | COc1ccccc1N1CCN(CCN(C(=O)C2CCC(F)CC2)c2ccccn2)CC1 (stereo unspecified) |
| 0.02 |  | 0.047 | 0.118 |  | 791 | 1140 | 3960 | COc1ccccc1N1CCN(CCN(C(=O)c2ccc(F)c(C)c2)c2ccccn2)CC1 |
